From patent US11312716B2, “9H-pyrrolo-dipyridine derivatives” (UCB Biopharma SRL, priority 2015, dated 2022)

Assays:
[1] = Rat brain free fraction (Fu) measurement by equilibrium dialysis; details: male, Sprague-Dawley, brain homogenate (25% w/v in PBS), pH 7.4
Experimental: (§1) The Brain free faction was carried out in duplicate at a single concentration of 1 μM after 4 h of equilibrium dialysis.
(§2) Male Sprague-Dawley Rat (Harlan, Bresso, Italy) brain homogenate were prepared in PBS, pH 7.4 at 25% w/vy using a Precellys 24-dual tissue homogenizer (BERTIN technologies, Montigny-le-Bretonneux, France).
(§3) 350 μL PBS pH 7.4 was loaded in the other chamber of the insert. The Red device reusable base counting insert containing insert with both samples and buffer was sealed and incubated during 4 h at 37° C., 300 rpm, on an orbital shaker.
(§4) At the end of the incubation, all brain samples were diluted 1:1 with PBS and PBS samples were diluted 1:1 with control brain homogenate. All samples were then diluted 1:3 with an internal standard (dextromethorphan 10 ng/mL in acetonitrile, Sigma, St Louis, United states), mixed and centrifuged 5 min at 3000 rpm at 4° C. Supernatant was diluted 1:2 with 0.1% formic acid in water (Biosolve, Dieuze, France) before analysis by LC/MS/MS. The LC system used was an Agilent 1290 (Agilent, Santa Clara, United states) coupled with a API5000 mass spectrometer (ABSciex, Framingham, United states). The software was analyst 1.5.2. (Agilent, Santa Clara, United states), the analytical column was an Aquity UPLC HSS T3 (30×2.1 mm, 1.8 μm, Waters, Saint-Quentin, France) operated at 40° C. Analysis were performed in the gradient described below. Gradient used for LC MS/MS
(§5) The Fu brain (%) was calculated using the following equation Fu brain(%)=(1/(1+((1/((fu homogenate)−1)×D)))×100 Where Fu homogenate=peak area ratio buffer/peak area ratio brain and D=dilution factor of the homogenate.

rat MAO-A enzyme = rat MAO-A enzyme (Rattus norvegicus (Rat), UniProt P21396); assay: Rat MAO-A binding, competition for [3H]Ro 41-1049 in rat cerebral cortex; details: for inhibition at 0.01 µM: 10 nM [3H]Ro 41-1049, read-out: Rat MAO-A Binding INHIB 10 nM; for inhibition at 0.1 µM: 10 nM [3H]Ro 41-1049, read-out: Rat MAO-A Binding INHIB 100 nM
Experimental: Compound selectivity for Tau protein was assessed as compared to a broad panel of receptors, enzymes and ion channels. Selectivity profiling of 10 μM compounds against a panel of 81 targets (n=1 with data in duplicate) was performed. Compounds affinity for rat MAO-A enzyme was assessed in rat cerebral cortex by competition experiment for 10 nM [^3H]Ro 41-1049 and increasing concentrations of test compounds. Compounds affinity for human MAO-A enzyme (1 μg/assay, Sigma-Aldrich, Diegem, Belgium) was assessed by saturation binding experiment performed as described above with [^3H]compounds.

[2] = brain homogenate
Experimental: as §1, §2, §3, §4, §5

Chain of rat MAO-A enzyme (P21396 whole entry): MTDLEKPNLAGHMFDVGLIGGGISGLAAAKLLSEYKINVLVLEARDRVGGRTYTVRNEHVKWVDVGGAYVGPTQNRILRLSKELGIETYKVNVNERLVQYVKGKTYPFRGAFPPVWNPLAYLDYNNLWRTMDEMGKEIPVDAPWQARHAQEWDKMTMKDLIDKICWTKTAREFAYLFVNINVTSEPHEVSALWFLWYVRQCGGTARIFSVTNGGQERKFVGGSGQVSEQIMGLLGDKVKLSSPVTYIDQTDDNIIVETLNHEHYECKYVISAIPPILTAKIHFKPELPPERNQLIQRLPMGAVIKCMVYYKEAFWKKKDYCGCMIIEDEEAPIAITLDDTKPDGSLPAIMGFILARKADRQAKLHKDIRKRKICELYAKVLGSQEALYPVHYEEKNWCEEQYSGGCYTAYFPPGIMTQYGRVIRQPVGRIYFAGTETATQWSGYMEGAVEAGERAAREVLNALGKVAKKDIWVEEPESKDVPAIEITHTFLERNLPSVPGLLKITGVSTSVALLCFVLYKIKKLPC

Row | Molecule | fraction unbound at 4 h, 1 μM [1] | inhibition at 0.01 µM (rat MAO-A enzyme; 10 nM test compound) | inhibition at 0.1 µM (rat MAO-A enzyme; 100 nM test compound) | Rat MAO-A Binding INHIB 10 nM (rat MAO-A enzyme; 10 nM test compound, 10 nM [3H]Ro 41-1049) | Rat MAO-A Binding INHIB 100 nM (rat MAO-A enzyme; 100 nM test compound, 10 nM [3H]Ro 41-1049) | Fu Rat Brain [2]
1 | COc1cc(-c2ccc3c(n2)[nH]c2ccncc23)ccn1 [Example 2, 2-(2-methoxypyridin-4-yl)-9H-pyrrolo[2,3-b:4,5-c′]dipyridine] | 0.009 |  |  |  |  | 
2 | Cn1cc(-c2ccc3c(n2)[nH]c2ccncc23)cn1 [Example 4, 2-(1-methyl-1H-pyrazol-4-yl)-9H-pyrrolo[2,3-b:4,5-c′]dipyridine] | 0.075 | 21% | 50% |  |  | 
3 | COc1ccc(-c2ccc3c(n2)[nH]c2ccncc23)cn1 [Example 5, 2-(6-methoxypyridin-3-yl)-9H-pyrrolo[2,3-b:4,5-c′]dipyridine] | 0.006 | 8% | 39% |  |  | 
4 | Oc1ccc(-c2ccc3c(n2)[nH]c2ccncc23)cn1 [Example 6, 5-(9H-pyrrolo[2,3-b:4,5-c′]dipyridin-2-yl)pyridin-2-ol] | 0.098 |  |  |  |  | 
5 | COc1ncc(-c2ccc3c(n2)[nH]c2ccncc23)cc1F [Example 7, 2-(5-fluoro-6-methoxypyridin-3-yl)-9H-pyrrolo[2,3-b:4,5-c′]dipyridine] | 0.005 |  |  |  |  | 
6 | c1cc2[nH]c3nc(-c4cn[nH]c4)ccc3c2cn1 [Example 9, 2-(1H-pyrazol-4-yl)-9H-pyrrolo[2,3-b:4,5-c′]dipyridine] | 0.036 | -5% | 7% |  |  | 
7 | c1cc2[nH]c3nc(-c4cnc(N5CCOCC5)nc4)ccc3c2cn1 [Example 10, 4-(5-(9H-pyrrolo[2,3-b:4,5-c′]dipyridin-2-yl)pyrimidin-2-yl)morpholine] | 0.011 |  |  |  |  | 
8 | CNC(=O)c1ccc(-c2ccc3c(n2)[nH]c2ccncc23)cn1 [Example 11, N-methyl-5-(9H-pyrrolo[2,3-b:4,5-c′]dipyridin-2-yl)pyridine-2-carboxamide] | 0.028 | -12% | -7% |  |  | 
9 | Nc1ncc(-c2ccc3c(n2)[nH]c2ccncc23)cc1F [Example 12, 3-fluoro-5-(9H-pyrrolo[2,3-b:4,5-c′]dipyridin-2-yl)pyridin-2-amine] | 0.005 | 8% | 13% |  |  | 
10 | c1cnc(N2CCN(c3ccc4c(n3)[nH]c3ccncc34)CC2)nc1 [Example 13, 2-(4-(pyrimidin-2-yl)piperazin-1-yl)-9H-pyrrolo[2,3-b:4,5-c′]dipyridine] | 0.011 |  |  |  |  | 
11 | c1cc(N2CCN(c3ccc4c(n3)[nH]c3ccncc34)CC2)ccn1 [Example 14, 2-(4-(pyridin-4-yl)piperazin-1-yl)-9H-pyrrolo[2,3-b:4,5-c′]dipyridine] | 0.019 |  |  |  |  | 
12 | c1cc2[nH]c3nc(-c4ccn[nH]4)ccc3c2cn1 [Example 15, 2-(1H-pyrazol-3-yl)-9H-pyrrolo[2,3-b:4,5-c′]dipyridine] | 0.056 |  |  |  |  | 
13 | c1cc2[nH]c3nc(-c4ccc(N5CCOCC5)nc4)ccc3c2cn1 [Example 21, 4-(5-(9H-pyrrolo[2,3-b:4,5-c′]dipyridin-2-yl)pyridin-2-yl)morpholine] | 0.005 |  |  |  |  | 
14 | COCCNc1ncc(-c2ccc3c(n2)[nH]c2ccncc23)cn1 [Example 22, N-(2-methoxyethyl)-5-(9H-pyrrolo[2,3-b:4,5-c′]dipyridin-2-yl)pyrimidin-2-amine] |  | 8% | 15% |  |  | 
15 | Cc1cc(-c2ccc3c(n2)[nH]c2ccncc23)n[nH]1 [Example 24, 2-(5-methyl-1H-pyrazol-3-yl)-9H-pyrrolo[2,3-b:4,5-c′]dipyridine] | 0.02 | 7% | 9% |  |  | 
16 | FCCn1cc(-c2ccc3c(n2)[nH]c2ccncc23)cn1 [Example 25, 2-[1-(2-fluoroethyl)-1H-pyrazol-4-yl]-9H-pyrrolo[2,3-b: 4,5-c′]dipyridine] | 0.087 | 13% | 2% |  |  | 
17 | O=C(NCCF)c1ccc(-c2ccc3c(n2)[nH]c2ccncc23)cn1 [Example 29, N-(2-fluoroethyl)-5-(9H-pyrrolo[2,3-b:4,5-c′]dipyridin-2-yl)picolinamide] |  | 8% | 23% |  |  | 
18 | COCCNC(=O)c1ccc(-c2ccc3c(n2)[nH]c2ccncc23)cn1 [Example 30, N-(2-methoxyethyl)-5-(9H-pyrrolo[2,3-b:4,5-c′]dipyridin-2-yl)picolinamide] |  | 2% | 9% |  |  | 

Row | Molecule | fraction unbound at 4 h, 1 μM [1] | inhibition at 0.01 µM (rat MAO-A enzyme; 10 nM test compound) | inhibition at 0.1 µM (rat MAO-A enzyme; 100 nM test compound) | Rat MAO-A Binding INHIB 10 nM (rat MAO-A enzyme; 10 nM test compound, 10 nM [3H]Ro 41-1049) | Rat MAO-A Binding INHIB 100 nM (rat MAO-A enzyme; 100 nM test compound, 10 nM [3H]Ro 41-1049) | Fu Rat Brain [2]
19 | COc1cnn(-c2ccc3c(n2)[nH]c2ccncc23)c1 [Example 31, 2-(4-methoxy-1H-pyrazol-1-yl)-9H-pyrrolo[2,3-b:4,5-c′]dipyridine] | 0.007 | 16% | 39% |  |  | 
20 | c1cc2[nH]c3nc(-c4cnc(N5CCOCC5)s4)ccc3c2cn1 [Example 32, 4-(5-(9H-pyrrolo[2,3-b:4,5-c′]dipyridin-2-yl)thiazol-2-yl)morpholine] | 0.005 | 7% | 46% |  |  | 
21 | CNc1ccc(C(=O)Nc2ccc3c(n2)[nH]c2ccncc23)cn1 [Example 35, 6-(methylamino)-N-(9H-pyrrolo[2,3-b:4,5-c′]dipyridin-2-yl)nicotinamide] | 0.005 |  |  |  |  | 
22 | COc1cc2[nH]c3nc(-c4ccc(F)nc4)ccc3c2cn1 [Example 36, 2-(6-fluoropyridin-3-yl)-7-methoxy-9H-pyrrolo[2,3-b:4,5-c′]dipyridine] | 0.005 |  |  |  |  | 
23 | CN(C)c1cc2[nH]c3nc(-c4cnn(C)c4)ccc3c2cn1 [Example 44, N,N-dimethyl-2-(1-methyl-1H-pyrazol-4-yl)-9H-pyrrolo[2,3-b:4,5-c′]dipyridin-7-amine] |  | 2% | 9% |  |  | 
24 | Cc1cc2[nH]c3nc(-c4ccc(F)nc4)ccc3c2cn1 [Example 45, 2-(6-fluoropyridin-3-yl)-7-methyl-9H-pyrrolo[2,3-b:4,5-c′]dipyridine] | 0.011 |  |  |  |  | 
25 | CNC(=O)c1ccc(-c2ccc3c(n2)[nH]c2cc(C)ncc23)cn1 [Example 46, N-methyl-5-(7-methyl-9H-pyrrolo[2,3-b:4,5-c′]dipyridin-2-yl)picolinamide] |  | 11% | 12% |  |  | 
26 | Cc1cc2[nH]c3nc(-c4cnn(C)c4)ccc3c2cn1 [Example 47, 7-methyl-2-(1-methyl-1H-pyrazol-4-yl)-9H-pyrrolo[2,3-b: 4,5-c′]dipyridine] | 0.028 | -1% | 10% |  |  | 
27 | CNC(=O)c1ccc(-c2ccc3c(n2)[nH]c2cc(COC)ncc23)cn1 [Example 49, 5-(7-(methoxymethyl)-9H-pyrrolo[2,3-b:4,5-c′]dipyridin-2-yl)-N-methylpicolinamide] |  | -9% | -4% |  |  | 
28 | COCc1cc2[nH]c3nc(-c4cnn(C)c4)ccc3c2cn1 [Example 50, 7-(methoxymethyl)-2-(1-methyl-1H-pyrazol-4-yl)-9H-pyrrolo[2,3-b: 4,5-c′]dipyridine] | 0.04 | 1% | 7% |  |  | 
29 | Cn1cc(-c2ccc3c(n2)[nH]c2cnccc23)cn1 [Example 51, 2-(1-methyl-1H-pyrazol-4-yl)-9H-pyrrolo[2,3-b:5,4-c′]dipyridine] | 0.045 | 3% | 6% |  |  | 
30 | c1cc2c(cn1)[nH]c1nc(-c3cn[nH]c3)ccc12 [Example 52, 2-(1H-pyrazol-4-yl)-9H-pyrrolo[2,3-b:5,4-c′]dipyridine] | 0.026 |  |  |  |  | 
31 | CNC(=O)c1ccc(-c2ccc3c(n2)[nH]c2cnccc23)cn1 [Example 53, N-methyl-5-(9H-pyrrolo[2,3-b:5,4-c′]dipyridin-2-yl)picolinamide] | 0.015 | -10% | -13% |  |  | 
32 | Fc1ccc(-c2ccc3c(n2)[nH]c2cnccc23)cn1 [Example 54, 2-(6-fluoropyridin-3-yl)-9H-pyrrolo[2,3-b:5,4-c′]dipyridine] | 0.019 | 10% | 12% |  |  | 
33 | CNc1ccc(-c2ccc3c(n2)[nH]c2cnccc23)cn1 [Example 55, N-methyl-5-(9H-pyrrolo[2,3-b:5,4-c′]dipyridin-2-yl)pyridin-2-amine] | 0.005 | 6% | 9% |  |  | 
34 | Fc1ccc(-c2ccc3c(n2)[nH]c2ncccc23)cn1 [Example 57, 2-(6-fluoropyridin-3-yl)-9H-pyrrolo[2,3-b:5,4-b′]dipyridine] | 0.013 | 1% | 8% |  |  | 
35 | N-methyl-5-(9H-pyrrolo[2,3-b:4,5-c′]dipyridin-7-yl)picolinamide [Example 60] |  |  |  | −3% | −1% | 0.5%
